Several values for one entry are separate records, joined by “and”; a condition that tells them apart may be missing. Identical values can stand only once. Like-named read-outs stand apart in the source and are kept apart here.
Assays:
[1] = tested on: HBsAg secretion, HBV producing cell line HepG2.2.15; experiment: Cellular assay: HBsAg inhibition in HBV producing cell line HepG2.2.15; type: cell-based; conditions: Hepatitis B virus
Procedure: (§1) Cellular assays method 1: Cellular assays: The HBV producing cell line HepG2.2.15 was cultured in DMEM/F12 containing 10% fetal bovine serum (FBS), 100 U/ml penicillin and 100 μg/ml streptomycin (Invitrogen). Compounds of the disclosure in DMSO was added into the culture medium when cell reached 100% confluence. The final concentration of DMSO was adjusted to 0.5%. Culture medium was replaced in two days and the cell was cultured for additional two days in the presence of compound. HBsAg inhibition in culture medium was then detected with AlphaLisa assay using anti-HBsAg antibodies of 10-H05H and 60C-CR2100RB from Fitzgerald Internantional. To examine the change of nucleic acid, total RNA was extracted with Trizol reagents and resolved in glyoxal agarose gel. HBV RNA blotted onto nitrocellulose membrane was measured with P32 labeled ribo-probe. Reduction and shortening of viral RNA indicates on target effect of the tested compound. […] HepG2.2.15 cells were first seeded in 96-well plate (Corning, Cat #: CLS3595) at density of 10,000 cells/well in 100 ul DMEM/F12 medium containing 10% FBS. When cells reached 100% confluence, treatment with compounds of the disclosure was initiated, and cells were cultured in the way as described for HBsAg inhibition study. Four days post drug treatment, 100 ul of CellTiter-Glo reagents (Promega, Cat #G7570) were added into each well and the mixture was incubated at 23° C. for 12 minutes, followed by the reading of luminescent signal in Tecan's Infinite 200 PRO. Compound IC50 on HBsAg and CC50 on cell viability were calculated using Graphpad prism. The IC50 and CC50 are defined as the compound concentration (or conditioned media log dilution) at which HBsAg secretion and cytotoxicity, respectively, are reduced by 50% compared to the no drug control.
(§2) Cellular assays method 2: HepG2.2.15 cells were seeded in duplicate into white, 96-well plates at 1.5×10^4 cells/well. The cells were treated with a 3-fold serial dilution series of the compounds in DMSO. The final DMSO concentration in all wells was 1%, and DMSO was used as no drug control. The HBsAg chemiluminescence immunoassay (CLIA) kit (Autobio Diagnostics Co., Zhengzhou, China) was used to measure the levels of secreted HBV antigens semi-quantitatively. For the detection, 50 μL/well culture supernatant was used and the procedure conducted as directed by manufacturer's instructions. The cytotoxicity was measured using CellTiter-Glo (Promega, Madison, WI, USA, catalogue no. G7571). Dose-response curves were generated and the IC50 and CC50 values were calculated using Graphpad prism. The IC50 and CC50 are defined as the compound concentration (or conditioned media log dilution) at which HBsAg secrection and cytotoxicity, respectively, are reduced by 50% compared to the no drug control.

[2] = Cellular toxicity (CellTiter-Glo) in HepG2.2.15 cells; type: cell-based; conditions: human
Procedure: as §1, §2

[3] = Pharmacokinetics after 8 mg/kg oral (PO) administration, plasma; type: in vivo, CD1 mice; parameters: AUClast/D: unit not given here
Procedure: (§3) Protocol for pharmacokinetic and tissue distribution studies. The pharmacokinetics of the compounds was studied in CD1 mice after intravenous (IV) and oral gavage (PO) administration. Mouse PK studies was conducted at 3 mg/kg (IV) and 8 mg/kg (PO). Plasma samples obtained from dosed animals, at ten time points, including 5, 15 and 30 minutes and 1, 1.5, 2, 4, 6, 8 and 24 hr post-dose for processing to plasma, were prepared for analysis by means of a single step protein precipitation technique, by adding 200 μL of acetonitrile containing an IS mixture (labetalol, imipramine and diclofenac) to 50 μL aliquots of individual subject samples. Samples were mixed by vortex for homogeneity and then subjected to centrifugation at 4000 rpm for 10 min. The supernatant (200 μL) was collected and injected into the LC-MS/MS for analysis. Pharmacokinetic parameters will be calculated using established non-compartmental methods. The liver distribution of the compounds was studied in the PO group and liver tissues were collected at each time point after PO administration. Accurately weighed whole liver tissues were collected in a 50 mL tube, and 3 volumes per weight of water will be added. Tissue samples were homogenized and 50 μL of the homogenates will be processed along with plasma samples as described above.

[4] = Liver distribution after 8 mg/kg oral dose (liver vs plasma); type: in vivo, CD1 mice
Procedure: as §3

[5] = CD1, mouse, plasma, 8 mg/kg oral, mean

## COc1cc2c(cc1OCCCCCCC(=O)O)C[C@@H](C(C)C)n1cc(C(=O)O)c(=O)cc1-2 [Example 6, (S)-9-((6-carboxyhexyl)oxy)-6-isopropyl-10-methoxy-2-oxo-6,7-dihydro-2H-pyrido[2,1-a]isoquinoline-3-carboxylic acid]
[1]
  EC50: 23 nM
[2]
  CC50: > 10000 nM
[3]; 8 mg/kg oral vs 3 mg/kg IV, mean
  F: 5.09%
[3]; 8 mg/kg oral, 0.25 h, individual animals
  Plasma concentration: 10.3 ng/mL and 19.5 ng/mL and 18.4 ng/mL
[3]; 8 mg/kg oral, 0.5 h, individual animals
  Plasma concentration: 9.93 ng/mL and 9.00 ng/mL and 9.40 ng/mL
[3]; 8 mg/kg oral, 1 h, individual animals
  Plasma concentration: 4.10 ng/mL and 5.94 ng/mL and 9.27 ng/mL
[3]; 8 mg/kg oral, 2 h, individual animals
  Plasma concentration: 5.41 ng/mL and 4.55 ng/mL and 2.29 ng/mL
[3]; 8 mg/kg oral, 4 h, individual animals
  Plasma concentration: 3.03 ng/mL and 4.12 ng/mL and 3.68 ng/mL
[3]; 8 mg/kg oral, 6 h, individual animals
  Plasma concentration: 1.53 ng/mL and 2.42 ng/mL and 2.85 ng/mL
[3]; 8 mg/kg oral, 8 h, individual animals
  Plasma concentration: 6.65 ng/mL and 2.11 ng/mL and BLOQ
[3]; 8 mg/kg oral, 24 h, individual animals
  Plasma concentration: BLOQ
[3]; 8 mg/kg oral, mean
  AUClast/D: 4.33
[3]; CD1, mouse, plasma, oral, 8 mg/kg, 8 mg/kg oral, 0.25 h, individual animals, read-out: Plasma concentration
  concentration at 0.25 h: 18.4 ng/mL
[3]; CD1, mouse, plasma, oral, 8 mg/kg, 8 mg/kg oral, 0.25 h, mean, read-out: Mean plasma concentration
  concentration at 0.25 h: 16.1 ng/mL
[3]; CD1, mouse, plasma, oral, 8 mg/kg, 8 mg/kg oral, 0.5 h, individual animals, read-out: Plasma concentration
  concentration at 0.5 h: 9.4 ng/mL
[3]; CD1, mouse, plasma, oral, 8 mg/kg, 8 mg/kg oral, 0.5 h, mean, read-out: Mean plasma concentration
  concentration at 0.5 h: 9.44 ng/mL
[3]; CD1, mouse, plasma, oral, 8 mg/kg, 8 mg/kg oral, 1 h, mean
  concentration at 1 h: 6.44 ng/mL
[3]; CD1, mouse, plasma, oral, 8 mg/kg, 8 mg/kg oral, 2 h, mean
  concentration at 2 h: 4.08 ng/mL
[3]; CD1, mouse, plasma, oral, 8 mg/kg, 8 mg/kg oral, 4 h, individual animals, read-out: Plasma concentration
  concentration at 4 h: 3.68 ng/mL
[3]; CD1, mouse, plasma, oral, 8 mg/kg, 8 mg/kg oral, 4 h, mean, read-out: Mean plasma concentration
  concentration at 4 h: 3.61 ng/mL
[3]; CD1, mouse, plasma, oral, 8 mg/kg, 8 mg/kg oral, 6 h, individual animals, read-out: Plasma concentration
  concentration at 6 h: 2.85 ng/mL
[3]; CD1, mouse, plasma, oral, 8 mg/kg, 8 mg/kg oral, 6 h, mean, read-out: Mean plasma concentration
  concentration at 6 h: 2.27 ng/mL
[3]; CD1, mouse, plasma, oral, 8 mg/kg, 8 mg/kg oral, 8 h, mean
  concentration at 8 h: 4.38 ng/mL
[3]; [5]
  AUC(0-t): 34.7 ng·h/mL
  Cmax: 16.1 ng/mL
  Tmax: 15 min
[4]; 0.25 h, individual animals
  Liver concentration: 428 ng/g and 372 ng/g and 199 ng/g
  Ratio (liver/plasma): 41.6 and 19.1 and 10.8
[4]; 0.5 h, individual animals
  Liver concentration: 241 ng/g and 321 ng/g
  Ratio (liver/plasma): 24.3 and 35.6
[4]; 1 h, individual animals
  Liver concentration: 237 ng/g and 404 ng/g
  Ratio (liver/plasma): 39.9 and 43.6
[4]; 2 h, individual animals
  Liver concentration: 377 ng/g and 299 ng/g and 108 ng/g
  Ratio (liver/plasma): 65.8 and 47.3
[4]; 4 h, individual animals
  Liver concentration: 128 ng/g and 179 ng/g
  Ratio (liver/plasma): 42.2 and 43.5
[4]; 6 h, individual animals
  Liver concentration: 130 ng/g and 43.2 ng/g and 55.6 ng/g
  Ratio (liver/plasma): 28.2 and 23.0
[4]; 8 h, individual animals
  Liver concentration: 106 ng/g and 37.6 ng/g and 45.6 ng/g
  Ratio (liver/plasma): 17.8
[4]; CD1, mouse, liver, oral, 8 mg/kg, 0.5 h, individual animals
  concentration at 0.5 h: 366 ng/g
[4]; CD1, mouse, liver, oral, 8 mg/kg, 1 h, individual animals
  concentration at 1 h: 259 ng/g
[4]; CD1, mouse, liver, oral, 8 mg/kg, 4 h, individual animals
  concentration at 4 h: 106 ng/g
[4]; CD1, mouse, liver/plasma, oral, 8 mg/kg, 0.25 h, mean, read-out: Ratio (liver/plasma) Mean
  Kp at 0.25 h: 23.8
[4]; CD1, mouse, liver/plasma, oral, 8 mg/kg, 0.5 h, individual animals, read-out: Ratio (liver/plasma)
  Kp at 0.5 h: 38.9
[4]; CD1, mouse, liver/plasma, oral, 8 mg/kg, 0.5 h, mean, read-out: Ratio (liver/plasma) Mean
  Kp at 0.5 h: 32.9
[4]; CD1, mouse, liver/plasma, oral, 8 mg/kg, 1 h, individual animals, read-out: Ratio (liver/plasma)
  Kp at 1 h: 63.1
[4]; CD1, mouse, liver/plasma, oral, 8 mg/kg, 1 h, mean, read-out: Ratio (liver/plasma) Mean
  Kp at 1 h: 48.9
[4]; CD1, mouse, liver/plasma, oral, 8 mg/kg, 2 h, individual animals, read-out: Ratio (liver/plasma)
  Kp at 2 h: 69.6
[4]; CD1, mouse, liver/plasma, oral, 8 mg/kg, 2 h, mean, read-out: Ratio (liver/plasma) Mean
  Kp at 2 h: 60.9
[4]; CD1, mouse, liver/plasma, oral, 8 mg/kg, 4 h, individual animals, read-out: Ratio (liver/plasma)
  Kp at 4 h: 28.9
[4]; CD1, mouse, liver/plasma, oral, 8 mg/kg, 4 h, mean, read-out: Ratio (liver/plasma) Mean
  Kp at 4 h: 38.2
[4]; CD1, mouse, liver/plasma, oral, 8 mg/kg, 6 h, individual animals, read-out: Ratio (liver/plasma)
  Kp at 6 h: 45.6
[4]; CD1, mouse, liver/plasma, oral, 8 mg/kg, 6 h, mean, read-out: Ratio (liver/plasma) Mean
  Kp at 6 h: 32.3
[4]; CD1, mouse, liver/plasma, oral, 8 mg/kg, 8 h, individual animals, read-out: Ratio (liver/plasma)
  Kp at 8 h: 15.9
[4]; CD1, mouse, liver/plasma, oral, 8 mg/kg, 8 h, mean, read-out: Ratio (liver/plasma) Mean
  Kp at 8 h: 16.8

Reference: patent US20250296929A1, “NOVEL HEPATOSELECTIVE POLYADENYLATING POLYMERASES INHIBITORS AND THEIR METHOD OF USE” (BARUCH S. BLUMBERG INSTITUTE, priority 2021, published 2025)
